PMC3495945, “Org 214007-0: A Novel Non-Steroidal Selective Glucocorticoid Receptor Modulator with Full Anti-Inflammatory Properties and Improved Therapeutic Index” (PLoS ONE, 2012)

Tests used:
[1] = tested on: hepatic glucose metabolism; assay: Mouse MIDA model for liver glucose metabolism; type: in vivo; settings: prednisolone 10 mg/kg, Org 214007-0 1.5 mg/kg; for glucokinase flux rate / gluconeogenic flux (de novo synthesis of glucose-6-phosphate) / glucose-6-phosphatase flux / glycogen phosphorylase flux / glycogen synthase flux rate / liver glucose balance / liver glycogen balance / metabolic clearance rate of blood glucose: 7 days p.o.; for fasting blood glucose levels vs vehicle: oral daily 7 days
Experimental: Eighteen hours after the last oral treatment and 9 hours after start of starvation, blood samples were taken from the tail vein and directly used for glucose measurements using “One touch Ultra” glucose meter from Lifescan EuroFlash (Lifescan Benelux Beerse, Belgium). The mouse MIDA study was performed as described previously by van Dijk et al., [52]. […] On the third day, mice were cannulated in the right jugular vein. After 7 days of treatment, mice were placed in small Plexiglas cages, which allowed collection of blood samples frequently in freely moving mice. Twenty four hours after the final dose and after a 9 hours starving period, a tail vein blood sample was used for a glucose measurement after which mice were shortly anesthetized to attach the infusion lines before the experiment. Filter paper was placed under the wired floor cages to collect urine samples and replaced hourly. Mice received an infusion of a sterilized aqueous solution containing [U-^13C]glucose (13 μmol/ml), [2-^13C]glycerol (160 μmol/ml), [1-^2H]galactose (33 μmol/ml) and paracetamol (1 mg/ml) at a rate of 0.54 ml/hr for 6 hours. During the experiment blood glucose was measured and blood spots for GCMS measurements were collected from tail tips just before the start of the infusion and at hourly intervals. Blood spots and urine filter papers were air-dried and stored at room temperature until analysis. Glucose and paracetamol-glucuronic acid (Par-GLcUa) were extracted from blood spot and urine filter papers, respectively, derivatised, and measured by GC-MS, essentially as described previously, [52]. The fractional isotopomer distribution according to GC-MS was corrected for fractional distribution due to the natural abundance of ^13C by multiple linear regression to obtain the excess mole fraction of mass isotopomers M0-M6 due to incorporation of infused labeled carbohydrates. From isotope dilution and infusion rates, the flux rates of the following metabolic pathways could be calculated: 1) de novo synthesis of G6P, 2) glucokinase, 3) glucose-6-phosphatase, 4) glycogenolysis, and 5) glycogen synthesis. The method of calculation was performed as described before, [52], [53].

[2] = molecular target: T1, recombinant human glucocorticoid receptor (GR) (Homo sapiens, UniProt P04150); assay: Glucocorticoid receptor fluorescence polarisation competitor binding assay; settings: fluorescence polarization competitor binding; mean (±SD); read-out: Ki, competitive binding
T1 construct: purchased Panvera P2816
Source text: (for more detailed information see Supportive Information) (SI text).

[3] = molecular target: T2, human estrogen receptor beta (ERβ) (Homo sapiens, UniProt Q92731); assay: CHO steroid receptor reporter assay, ERβ / rat oxytocin-Luc; type: cell-based; settings: ERß
T2 construct: expressed in transfected cells; host or cells: CHO K1
Source text: (§1) For monitoring both human steroid receptor agonistic as well as antagonistic activity of compounds, Chinese hamster ovary (CHO) K1 cells stably co-transfected with the specific human steroid receptor and its respective reporter construct were used (as previously described).
(§2) For human glucocorticoid receptor (GR)-specific activity CHO-GR B4.8 cells containing both recombinant human GR as well as a reporter construct consisting of the mouse mammary tumor virus (MMTV) promotor and the luciferase reporter gene, were used. Compound was incubated alone (in the agonistic setup) or with 50 nM dexamethasone (in the antagonistic setup) overnight. Hereafter, 200 µl medium was removed and 50 µl luciferine substrate solution from the LucLite luminescence kit (Packard, Meriden, USA) was added. […] Percentage maximal antagonistic efficacy was related to the maximal antagonistic efficacy of reference GR antagonist Org 34116. Similar procedures were followed for the other human steroid receptor assays (for more detailed information see Supportive Information) (SI text).
(§3) Similar procedures were followed for the other human steroid receptor assays containing combinations of human progesterone receptor B (PR-B) and MMTV-Luc, human androgen receptor (AR) and MMTV-Luc, human chimeric glucocorticoid-mineralocorticoid receptor (GGM, Trapp et al. (1994), Neuron 13: 1457) and MMTV-Luc, human estrogen receptor alpha (ERα) and rat oxytocin-Luc (45), and human estrogen receptor beta (ERβ) and rat oxytocin-Luc, respectively.

[4] = molecular target: T3, human progesterone receptor B (PR-B) (Homo sapiens, UniProt P06401); assay: CHO steroid receptor reporter assay, PR-B / MMTV-Luc; type: cell-based
T3 construct: expressed in transfected cells; host or cells: CHO K1
T3 sequence (P06401 1-933): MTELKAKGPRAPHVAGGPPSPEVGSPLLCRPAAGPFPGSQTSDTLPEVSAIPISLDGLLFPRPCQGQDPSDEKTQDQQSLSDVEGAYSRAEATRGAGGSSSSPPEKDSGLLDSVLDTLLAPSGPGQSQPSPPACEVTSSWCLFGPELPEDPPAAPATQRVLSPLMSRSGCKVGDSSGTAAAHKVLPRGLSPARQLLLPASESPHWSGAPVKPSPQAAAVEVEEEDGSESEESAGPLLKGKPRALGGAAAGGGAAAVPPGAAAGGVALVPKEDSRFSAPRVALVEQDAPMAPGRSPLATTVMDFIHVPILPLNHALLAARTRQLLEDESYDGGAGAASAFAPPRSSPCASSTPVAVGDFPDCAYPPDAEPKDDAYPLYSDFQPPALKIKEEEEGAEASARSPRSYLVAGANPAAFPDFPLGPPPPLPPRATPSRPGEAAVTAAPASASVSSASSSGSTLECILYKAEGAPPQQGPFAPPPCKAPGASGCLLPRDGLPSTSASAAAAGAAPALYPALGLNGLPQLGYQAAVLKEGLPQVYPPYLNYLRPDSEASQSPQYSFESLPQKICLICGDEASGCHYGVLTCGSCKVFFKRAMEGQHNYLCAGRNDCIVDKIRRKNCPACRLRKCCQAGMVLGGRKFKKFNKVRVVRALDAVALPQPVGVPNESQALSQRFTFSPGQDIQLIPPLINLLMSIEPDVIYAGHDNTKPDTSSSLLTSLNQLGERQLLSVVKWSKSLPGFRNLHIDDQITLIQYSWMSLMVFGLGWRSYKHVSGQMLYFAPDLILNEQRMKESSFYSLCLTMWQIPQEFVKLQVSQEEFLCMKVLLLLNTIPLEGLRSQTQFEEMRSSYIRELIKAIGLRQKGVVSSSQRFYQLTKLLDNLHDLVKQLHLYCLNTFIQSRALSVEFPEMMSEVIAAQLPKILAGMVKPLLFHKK
Source text: as §1, §2, §3

T2 sequence (Q92731 whole entry): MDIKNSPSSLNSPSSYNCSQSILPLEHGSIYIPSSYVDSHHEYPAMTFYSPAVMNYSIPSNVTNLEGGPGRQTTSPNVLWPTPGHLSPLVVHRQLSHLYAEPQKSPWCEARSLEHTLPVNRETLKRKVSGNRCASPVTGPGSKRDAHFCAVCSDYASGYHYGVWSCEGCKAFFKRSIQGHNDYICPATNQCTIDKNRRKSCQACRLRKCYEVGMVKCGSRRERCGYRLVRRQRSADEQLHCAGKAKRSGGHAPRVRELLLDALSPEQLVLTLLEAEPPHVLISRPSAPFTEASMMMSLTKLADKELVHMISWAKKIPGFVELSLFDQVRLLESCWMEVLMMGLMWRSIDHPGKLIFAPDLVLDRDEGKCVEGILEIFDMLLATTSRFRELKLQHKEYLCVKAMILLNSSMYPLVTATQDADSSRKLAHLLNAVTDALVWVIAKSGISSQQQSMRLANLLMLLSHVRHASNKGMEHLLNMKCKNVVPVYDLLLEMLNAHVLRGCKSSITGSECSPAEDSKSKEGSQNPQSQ
T1 sequence (P04150 whole entry): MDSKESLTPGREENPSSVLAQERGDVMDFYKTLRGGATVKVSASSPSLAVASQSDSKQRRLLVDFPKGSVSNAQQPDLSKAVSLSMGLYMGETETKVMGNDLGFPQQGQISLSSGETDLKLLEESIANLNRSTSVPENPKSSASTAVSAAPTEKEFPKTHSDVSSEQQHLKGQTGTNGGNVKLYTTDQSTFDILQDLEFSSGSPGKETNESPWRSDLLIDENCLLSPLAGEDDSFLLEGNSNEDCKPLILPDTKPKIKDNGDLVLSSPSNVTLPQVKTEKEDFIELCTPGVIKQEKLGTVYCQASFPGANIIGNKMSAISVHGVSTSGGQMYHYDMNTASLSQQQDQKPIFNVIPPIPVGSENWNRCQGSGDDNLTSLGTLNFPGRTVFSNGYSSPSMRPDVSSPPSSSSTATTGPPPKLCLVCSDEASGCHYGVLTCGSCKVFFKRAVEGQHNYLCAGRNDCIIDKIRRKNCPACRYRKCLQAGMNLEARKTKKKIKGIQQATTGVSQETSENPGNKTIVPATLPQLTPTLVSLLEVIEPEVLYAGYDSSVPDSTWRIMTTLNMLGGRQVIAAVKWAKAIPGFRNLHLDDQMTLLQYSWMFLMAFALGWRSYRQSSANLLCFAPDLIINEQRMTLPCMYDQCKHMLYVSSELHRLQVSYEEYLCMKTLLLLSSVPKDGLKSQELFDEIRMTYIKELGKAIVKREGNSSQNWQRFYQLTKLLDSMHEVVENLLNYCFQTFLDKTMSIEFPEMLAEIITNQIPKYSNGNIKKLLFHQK

Row | Ki [2] [nM] | EC50 ([3]; read-out: EC50 (agonist)) [nM] | IC50 ([3]; read-out: IC50 (antagonist)) [nM] | % agonist potency ([3]; relative to reference compound) [%] | % antagonist potency ([3]; relative to reference compound) [%] | IC50 ([4]; mean (±SD), read-out: IC50 (antagonist)) [nM] | Emax ([4]; read-out: % efficacy (antagonist)) [%] | EC50 ([4]; read-out: EC50 (agonist)) [nM] | % agonist potency ([4]; relative to reference compound) [%] | % antagonist potency ([4]; relative to reference compound, mean (±SD)) | Structure (SMILES) | glucokinase flux rate [1] | gluconeogenic flux (de novo synthesis of glucose-6-phosphate) [1] | glucose-6-phosphatase flux [1] | glycogen phosphorylase flux [1] | glycogen synthase flux rate [1] | liver glucose balance [1] | liver glycogen balance [1] | metabolic clearance rate of blood glucose [1] | fasting blood glucose levels vs vehicle [1]
1 |  |  |  |  |  |  |  |  |  |  | C[C@]12C=CC(=O)C=C1CC[C@@H]1[C@@H]2[C@@H](O)C[C@@]2(C)[C@H]1CC[C@]2(O)C(=O)CO [prednisolone, reference compound] | significantly decreased | no change | Neither the glucose-6-phosphatase flux (A) nor the glycogen phosphorylase flux (B) were affected | Neither the glucose-6-phosphatase flux (A) nor the glycogen phosphorylase flux (B) were affected | significantly decreased | significantly changed | significantly changed | Neither Org 214007-0 nor prednisolone, at equi-efficacious dosages, effects | significantly elevated
2 | 2.2 | > 100 | > 1000 | <0.01 | <0.9 | 19.4 | > 87 | > 100 | <0.03 | 0.46 (±0.2) % | Cc1nnsc1C(=O)N[C@H]1CCN2c3ccc(C#N)cc3[C@@H](C)c3ccccc3[C@@H]2C1 [Org 214007-0] | no significant effects | Neither Org 214007-0 nor prednisolone, at equi-efficacious dosages, effects | Neither the glucose-6-phosphatase flux (A) nor the glycogen phosphorylase flux (B) were affected | Neither the glucose-6-phosphatase flux (A) nor the glycogen phosphorylase flux (B) were affected | no significant effects | not affected | not effected | Neither Org 214007-0 nor prednisolone, at equi-efficacious dosages, effects | did not affect
